Test results as given in ChEMBL document CHEMBL1201862, “PubChem BioAssay data set” (2004).
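Where inhibition never reached the appropriate level, the endpoint shown equals the highest concentration tested. Otherwise, values were interpolated linearly from a five-concentration, 48-hour dose response in 96-well plates. GI50: concentration for 50% inhibition of growth.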 Calls of active or inactive are those of the source. Rule as the data show it: active = GI50 up to about 1.1 µM and inactive = higher.

Key:
Test in all cases: growth of human tumour cells (NCI), 48 h
786-0 = test system: 786-0
SF-295 = test system: SF-295
SNB-75 = test system: SNB-75
SN12C = test system: SN12C
MDA-MB-231 = test system: MDA-MB-231
NCI-H226 = test system: NCI-H226
K562 = test system: K562
NCI-H23 = test system: NCI-H23
SR = test system: SR
DU-145 = test system: DU-145
OVCAR-5 = test system: OVCAR-5
MDA-N = test system: MDA-N
M14 = test system: M14
TK-10 = test system: TK-10
A498 = test system: A498
LOX IMVI = test system: LOX IMVI
ACHN = test system: ACHN
UO-31 = test system: UO-31
PC-3 = test system: PC-3
NCI-H460 = test system: NCI-H460

Compound	GI50 (786-0)	GI50 (SF-295)	GI50 (SNB-75)	GI50 (SN12C)	GI50 (MDA-MB-231)	GI50 (NCI-H226)	GI50 (K562)	GI50 (NCI-H23)	GI50 (SR)	GI50 (DU-145)	GI50 (OVCAR-5)	GI50 (MDA-N)	GI50 (M14)	GI50 (TK-10)	GI50 (A498)	GI50 (LOX IMVI)	GI50 (ACHN)	GI50 (UO-31)	GI50 (PC-3)	GI50 (NCI-H460)
COc1ccc(CC2NCCc3cc(OC)c(OC)cc32)cc1Br (centres undefined)	39.4 µM (inactive)	21 µM (inactive)	24.3 µM (inactive)	36.1 µM (inactive)	22 µM (inactive)	18.6 µM (inactive)	16.6 µM (inactive)	23 µM (inactive)	23.9 µM (inactive)	> 100 µM (inactive)	19.5 µM (inactive)	18.2 µM (inactive)	16.8 µM (inactive)	25.6 µM (inactive)	30.1 µM (inactive)	19.1 µM (inactive)	33 µM (inactive)	28.2 µM (inactive)	72.4 µM (inactive)	21.2 µM (inactive)
Nc1nc(F)nc2c1ncn2C1OC(COP(=O)(O)O)C(O)C1O (centres undefined)	39.5 µM (inactive)	309 µM (inactive)	188 µM (inactive)	6.47 µM (inactive)	80.2 µM (inactive)	98.2 µM (inactive)	111 µM (inactive)	19.6 µM (inactive)	21.8 µM (inactive)	9.57 µM (inactive)	41.9 µM (inactive)	34 µM (inactive)	6.4 µM (inactive)	128 µM (inactive)	146 µM (inactive)	53.8 µM (inactive)	32.1 µM (inactive)	13.2 µM (inactive)	16.6 µM (inactive)	94 µM (inactive)
Clc1ccc(NCNC2Nc3ccccc3N2)cc1Cl	66.8 µM (inactive)	20.4 µM (inactive)	19.8 µM (inactive)	22.6 µM (inactive)	16.7 µM (inactive)	27.5 µM (inactive)	12.4 µM (inactive)	> 100 µM (inactive)	37.1 µM (inactive)	> 100 µM (inactive)	> 100 µM (inactive)	30.8 µM (inactive)	83.4 µM (inactive)	55.6 µM (inactive)	> 100 µM (inactive)	4.63 µM (inactive)	26.6 µM (inactive)	27.4 µM (inactive)	50.1 µM (inactive)	24.2 µM (inactive)
CN(C)[C@H]1CC[C@H]2[C@@H]3CCC4C[C@@H](NC(=O)NC(Cc5ccccc5)c5nccs5)CC[C@]4(C)[C@H]3CC[C@]12C (some centres undefined)	0.512 µM (active)	0.757 µM (active)	1.75 µM (inactive)	0.348 µM (active)	0.377 µM (active)	2.09 µM (inactive)	0.128 µM (active)	1.77 µM (inactive)	1.51 µM (inactive)	2.28 µM (inactive)	1.76 µM (inactive)	0.35 µM (active)	1.69 µM (inactive)	2.04 µM (inactive)	1.69 µM (inactive)	1.66 µM (inactive)	1.76 µM (inactive)	1.69 µM (inactive)	0.509 µM (active)	1.06 µM (active)
CNC1C(=O)C(C)C(O)(C(CC(C)C(O)/C=C/C=C/CNC(=O)C(C)(C)C(O)\C(C)=C/C=C\C=C\Cc2cnc(C)o2)OC)C12C(=O)OC2C.CNC1C(=O)C(C)C(O)(C(CC(C)C(O)/C=C/C=C/CNC(=O)C(C)(C)C(O)\C(C)=C/C=C\C=C\Cc2cnc(C)o2)OC)C12C(=O)OC2COC (centres undefined)	18.5 µM (inactive)	0.528 µM (active)	0.942 µM (active)	10.9 µM (inactive)	26.9 µM (inactive)	0.668 µM (active)	0.181 µM (active)	0.218 µM (active)	15.1 µM (inactive)	31.5 µM (inactive)	20.6 µM (inactive)	15 µM (inactive)	7.46 µM (inactive)	11.9 µM (inactive)	28.4 µM (inactive)	14.2 µM (inactive)	3.3 µM (inactive)	10.5 µM (inactive)	0.237 µM (active)	15.2 µM (inactive)
O=C1OC(CN2CCN(c3ccccc3)CC2)CN1C(=S)Nc1ccccc1 (centres undefined)	> 100 µM (inactive)	> 100 µM (inactive)	65.6 µM (inactive)	> 100 µM (inactive)	> 100 µM (inactive)	> 100 µM (inactive)	61.4 µM (inactive)	> 100 µM (inactive)	> 100 µM (inactive)	> 100 µM (inactive)	> 100 µM (inactive)	> 100 µM (inactive)	> 100 µM (inactive)	> 100 µM (inactive)	> 100 µM (inactive)	> 100 µM (inactive)	> 100 µM (inactive)	> 100 µM (inactive)	84.7 µM (inactive)	23.8 µM (inactive)
CN(CCCNC(=O)c1cn(C)c2c1ccc1cc(Cl)c(Cl)cc12)CCCNC(=O)c1cn(C)c2c1ccc1cc(Cl)c(Cl)cc12	6.27 µM (inactive)	17.1 µM (inactive)	10.8 µM (inactive)	13.6 µM (inactive)	15.4 µM (inactive)	22.1 µM (inactive)	5.41 µM (inactive)	14.6 µM (inactive)	4.57 µM (inactive)	15.3 µM (inactive)	16.4 µM (inactive)	15.9 µM (inactive)	10.7 µM (inactive)	17.5 µM (inactive)	12.9 µM (inactive)	5.74 µM (inactive)	13.1 µM (inactive)	16.7 µM (inactive)	13.3 µM (inactive)	3.97 µM (inactive)
COc1ccccc1-n1cnc2c1=NC(C)(C)NC=2C(N)=O	> 100 µM (inactive)	> 100 µM (inactive)	> 100 µM (inactive)	> 100 µM (inactive)	> 100 µM (inactive)	> 100 µM (inactive)	> 100 µM (inactive)	> 100 µM (inactive)	> 100 µM (inactive)	> 100 µM (inactive)	> 100 µM (inactive)	> 100 µM (inactive)	> 100 µM (inactive)	> 100 µM (inactive)	> 100 µM (inactive)	> 100 µM (inactive)	> 100 µM (inactive)		> 100 µM (inactive)	> 100 µM (inactive)
O=C(Nc1nnc(-c2ccc(Cl)cc2)o1)C(SC(=S)N1CCCCC1)c1ccccc1 (centres undefined)	14.8 µM (inactive)	12 µM (inactive)	39.1 µM (inactive)	12.5 µM (inactive)	19.4 µM (inactive)	32.7 µM (inactive)	11.6 µM (inactive)	21.9 µM (inactive)	3.91 µM (inactive)	25.7 µM (inactive)	21.5 µM (inactive)	15.5 µM (inactive)	13.2 µM (inactive)	34 µM (inactive)	18.5 µM (inactive)	6.12 µM (inactive)	15.7 µM (inactive)	10.5 µM (inactive)	22.4 µM (inactive)	7.6 µM (inactive)
ON[C@@H]1C=C[C@H](n2cnc3c(NC4CC4)ncnc32)C1	> 100 µM (inactive)	> 100 µM (inactive)	> 100 µM (inactive)	> 100 µM (inactive)	> 100 µM (inactive)	> 100 µM (inactive)	> 100 µM (inactive)	> 100 µM (inactive)	88.3 µM (inactive)	> 100 µM (inactive)	> 100 µM (inactive)	> 100 µM (inactive)	> 100 µM (inactive)	> 100 µM (inactive)	> 100 µM (inactive)	87.5 µM (inactive)	> 100 µM (inactive)	> 100 µM (inactive)	> 100 µM (inactive)	> 100 µM (inactive)
Cc1ccc(NC(=S)C#N)c(C)c1	> 100 µM (inactive)	> 100 µM (inactive)	> 82.4 µM (inactive)	> 100 µM (inactive)	> 100 µM (inactive)	> 84.3 µM (inactive)	38.4 µM (inactive)	> 69.5 µM (inactive)	33.7 µM (inactive)	> 100 µM (inactive)	> 100 µM (inactive)	> 82.2 µM (inactive)	97.3 µM (inactive)	> 100 µM (inactive)	> 100 µM (inactive)	73.1 µM (inactive)	> 100 µM (inactive)	50 µM (inactive)	> 100 µM (inactive)	> 89.7 µM (inactive)
C=C(Cl)C(=C)CCC(Cl)C(C)(C)Cl (centres undefined)	> 100 µM (inactive)	> 100 µM (inactive)	> 100 µM (inactive)	> 100 µM (inactive)	> 100 µM (inactive)	> 100 µM (inactive)	> 100 µM (inactive)	> 100 µM (inactive)	> 100 µM (inactive)	> 100 µM (inactive)	> 100 µM (inactive)	> 100 µM (inactive)	> 100 µM (inactive)	> 100 µM (inactive)	> 100 µM (inactive)	> 100 µM (inactive)	> 100 µM (inactive)	> 100 µM (inactive)	> 100 µM (inactive)	> 100 µM (inactive)
O=c1/c(=C/c2ccc([N+](=O)[O-])o2)sc2n1[C@@H](c1ccc3c(c1)OCO3)C=C(c1cc(F)c(Cl)cc1Cl)N=2	9.51 µM (inactive)	31.2 µM (inactive)	17.3 µM (inactive)	18 µM (inactive)	23 µM (inactive)	46.7 µM (inactive)	5.09 µM (inactive)	20.6 µM (inactive)	3.33 µM (inactive)	21.6 µM (inactive)	21.7 µM (inactive)	5.5 µM (inactive)	13.9 µM (inactive)	23.3 µM (inactive)	56 µM (inactive)	17.2 µM (inactive)	16.1 µM (inactive)	16.7 µM (inactive)	22 µM (inactive)	17.8 µM (inactive)
CN(C)CCNc1ccc2ncnc3c2c1C(=O)c1ccccc1-3	0.215 µM (active)	0.174 µM (active)	0.446 µM (active)	0.332 µM (active)	0.337 µM (active)	0.431 µM (active)	0.221 µM (active)	0.655 µM (active)	0.0824 µM (active)	0.476 µM (active)	0.488 µM (active)	0.456 µM (active)	0.314 µM (active)	0.175 µM (active)	1.64 µM (inactive)	0.24 µM (active)	0.281 µM (active)	0.468 µM (active)	0.519 µM (active)	0.443 µM (active)
